The record followed here is ChEMBL document CHEMBL5727875, “Substituted bicycle heterocyclic derivatives useful as ROMK channel inhibitors” (2020).

This assay deals with T1, ATP-sensitive inward rectifier potassium channel 1 (Homo sapiens, UniProt P48048).
T1 sequence (P48048 whole entry): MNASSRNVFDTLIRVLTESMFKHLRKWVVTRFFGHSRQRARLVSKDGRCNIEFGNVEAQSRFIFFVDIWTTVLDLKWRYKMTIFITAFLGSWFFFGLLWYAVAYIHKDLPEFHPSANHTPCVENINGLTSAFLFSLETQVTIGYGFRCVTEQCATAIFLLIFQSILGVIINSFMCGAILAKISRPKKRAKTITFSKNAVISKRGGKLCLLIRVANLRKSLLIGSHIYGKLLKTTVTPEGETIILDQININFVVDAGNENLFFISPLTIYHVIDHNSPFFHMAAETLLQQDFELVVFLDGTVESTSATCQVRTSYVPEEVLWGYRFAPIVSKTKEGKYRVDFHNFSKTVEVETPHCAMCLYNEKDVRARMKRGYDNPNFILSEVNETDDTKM
The assay can be described thus: Electrophysiology Assay: The coverslip plated with cells was placed in the experiment chamber perfused with bath solution composed of (in mM): 135 NaCl, 5 KCl, 2 CaCl2), 1 MgCl2, 10 HEPES, 5 Glucose (pH 7.4). Patch pipettes with resistance between 2-5 Megaohms, when filled with a solution containing (in mM): 135 KCl, 1 EGTA, 1 MgCl2, 10 HEPES, 2 Na2ATP (pH 7.3), were used to form gigaseals. The ….

By IC50 is commonly meant the midpoint of a concentration-inhibition curve. The low end stands for greater potency in that assay, the high end for weaker potency in that assay.

For the compound `Cc1c([C@@H](O)CNCc2cnn(-c3ccc4oc(=O)n(C)c4c3)c2)ccc2c1COC2=O`, the IC50 amounted to 12 nM.
